{"source": "PubChem BioAssay (NCI)", "note": "Values joined by “and” are separate entries in the source; they are usually repeats but may differ in a detail not shown here. Equal entries are not always repeated.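 Assay format: 96-well plates, 48-hour exposure. At the GI50, growth is halved. TGI: concentration producing complete growth inhibition.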"}
{"system": "HCT-15 colon", "experiment": "inhibition of tumour cell growth, NCI panel, 48 h", "units": {"GI50": "µM", "TGI": "µM"}}
{"smiles": "[Cl-].[Dy+3].[O-]/N=C(\\c1ccccc1)c1ccccn1.[O-]/N=C(\\c1ccccc1)c1ccccn1.[O-]/N=C(\\c1ccccc1)c1ccccn1", "GI50": 37, "TGI": "> 100"}
{"smiles": "CC(C)(CC(=O)Nc1ccccc1)C(=O)O", "TGI": "> 100"}
{"smiles": "COc1ccc(/C(COc2c(-c3ccccc3)oc3ccccc3c2=O)=N\\O)cc1", "GI50": 19.5, "TGI": "> 50"}
{"smiles": "NC(=O)C(=O)N/N=C(\\CC1(O)C(=O)Nc2ccccc21)c1ccc2ccccc2c1", "note": "(configuration not stated)", "TGI": "> 100"}
{"smiles": "Cc1cc2c(cc1C)[n+](=O)c(C(=O)C/C(=N/NC(=O)CC#N)C(=O)Nc1ccccc1C(F)(F)F)c(C)n2[O-]", "TGI": "> 100"}
{"smiles": "COC(=O)/C(=N/NC(=O)C[N+](C)(C)C)C(C(=O)OC)C(=O)C(=O)Nc1ccc(F)cc1", "note": "(configuration not stated)", "TGI": "> 100"}
{"smiles": "O=C(c1ccccc1)c1nnc(C(=O)c2ccccc2)nn1", "TGI": "> 344"}
{"smiles": "Brc1cccc(C=NC23CC4CC(CC(C4)C2)C3)c1", "TGI": "> 100"}
{"smiles": "CCC[CH2][Sn]([CH2]CCC)([O]C(=O)c1cccnc1SC)[O]C(=O)c1cccnc1SC", "GI50": 1.04, "TGI": 2.3}
{"smiles": "CC1(C)OC2[C@@H](CNC(=O)NC(=O)NC(=O)CI)O[C@@H](n3cnc4c(NC(=O)Nc5ccccc5)ncnc43)[C@H]2O1", "note": "(some centres not stated)", "GI50": 4.84, "TGI": 11.9}
{"smiles": "COc1cc(C2=C(c3ccccc3)COC2=O)cc(OC)c1OC", "GI50": 2.96, "TGI": "> 100"}
{"smiles": "COc1cc(C2NC(=O)c3ccccc3N2)ccc1OCCCCCOc1c(OC)cc(C2=NOC(c3cc(OC)c(OC)c(OC)c3)C2)cc1OC", "note": "(configuration not stated)", "GI50": 3.34, "TGI": "> 100"}
{"smiles": "O=C1O[C@@H](c2ccc3c(c2)OCO3)C2C(=O)O[C@@H](c3ccc4c(c3)OCO4)C12", "note": "(some centres not stated)", "TGI": "> 100"}
{"smiles": "O=C1CCC(=O)N2CCCCN12", "TGI": "> 100"}
{"smiles": "CC(C)C(=O)NC(=S)Nc1ccc([N+](=O)[O-])cc1C#N", "TGI": "> 100"}
{"smiles": "N#Cc1cc([N+](=O)[O-])ccc1NC(=O)C(=O)Nc1n[nH]c(N)n1", "TGI": "> 100"}
{"smiles": "O=C(/C=C/c1c(O)ccc2ccccc12)c1cccc(O)c1", "TGI": "> 100"}
{"smiles": "CC1=NN(C(=O)Nc2ccccc2)C(=O)C2CCC(=O)N12", "note": "(configuration not stated)", "TGI": "> 100"}
{"smiles": "COC(=O)C1Cc2c(n(Cc3ccccc3)c3ccccc23)C(CCC(=O)O)N1C(C)C", "note": "(configuration not stated)", "TGI": "> 100"}
{"smiles": "O=C(O)CNS(=O)(=O)c1ccc(NCc2ccccc2)cc1", "TGI": "> 100"}
{"smiles": "CC(C)(C)C1C=C(Sc2ccccc2)C(=O)O1", "note": "(configuration not stated)", "TGI": "> 100"}
{"smiles": "CCC[CH2][Sn]1([CH2]CCC)[O]Cc2nc(C)ccc2[O]1", "GI50": 10.1, "TGI": 21.9}
{"smiles": "Cc1ccc2c(c1)[n+]([O-])c(N)n[n+]2[O-]", "TGI": "> 100"}
{"smiles": "O=c1/c(=C/c2ccco2)sc2nc3ccccc3n12", "TGI": "> 10"}
{"smiles": "O=C1CCC2(c3ccc(F)cc3)Nc3cc(Cl)ccc3N12", "note": "(configuration not stated)", "TGI": "> 100"}
{"system": "HT29 colon", "experiment": "inhibition of tumour cell growth, NCI panel, 48 h", "units": {"GI50": "µM"}}
{"smiles": "COC(=O)c1c/c(=N\\NC(=O)CC(=O)Nc2ccccc2OC)c2ccccc2o1", "TGI": "> 100 µM"}
{"smiles": "NC(CCC(=O)NC(CSSCCCCS(=O)O)C(=O)NCC(=O)O)C(=O)O", "note": "(configuration not stated)", "TGI": "> 100 µM"}
{"smiles": "COC12C=C(C)C(CC1)CC2C(=O)O", "note": "(configuration not stated)", "TGI": "> 100 µM"}
{"smiles": "OCC(O)CC[CH2][Sn]([Br])([c]1ccccc1)[c]1ccccc1", "note": "(configuration not stated)", "GI50": "> 100", "TGI": "> 100 µM"}
{"smiles": "CCc1ccc(/C=C\\c2cc(OC)c(OC)c(OC)c2)cc1", "TGI": "0.527 µM and 0.121 µM"}
{"smiles": "O=c1c2cc([N+](=O)[O-])ccc2sc2ccsc12", "TGI": "> 100 µM"}
{"smiles": "C=CCCCCCCCCC(=O)[O][Sn]([CH2]CCC)([CH2]CCC)[CH2]CCC", "GI50": 0.154, "TGI": "0.332 µM"}
{"smiles": "COc1ccc(C2=CC3CCC2C3)cc1", "note": "(configuration not stated)", "TGI": "> 100 µM"}
{"smiles": "COc1ccc(/C=C/CN(C)CCc2ccccc2)cc1OC", "TGI": "> 100 µM"}
{"smiles": "CC/C(=C(/c1ccc(O)cc1)c1ccc(OCCNC)cc1)c1ccccc1", "GI50": 2.02, "TGI": "3.83 µM"}
{"smiles": "[Cl-].[Dy+3].[O-]/N=C(\\c1ccccc1)c1ccccn1.[O-]/N=C(\\c1ccccc1)c1ccccn1.[O-]/N=C(\\c1ccccc1)c1ccccn1", "GI50": 45.9, "TGI": "> 100 µM"}
{"smiles": "CC(C)(CC(=O)Nc1ccccc1)C(=O)O", "TGI": "> 100 µM"}
{"smiles": "COc1ccc(/C(COc2c(-c3ccccc3)oc3ccccc3c2=O)=N\\O)cc1", "GI50": 20.7, "TGI": "> 50 µM"}
{"smiles": "NC(=O)C(=O)N/N=C(\\CC1(O)C(=O)Nc2ccccc21)c1ccc2ccccc2c1", "note": "(configuration not stated)", "TGI": "> 100 µM"}
{"smiles": "Cc1cc2c(cc1C)[n+](=O)c(C(=O)C/C(=N/NC(=O)CC#N)C(=O)Nc1ccccc1C(F)(F)F)c(C)n2[O-]", "TGI": "> 100 µM"}
{"smiles": "COC(=O)/C(=N/NC(=O)C[N+](C)(C)C)C(C(=O)OC)C(=O)C(=O)Nc1ccc(F)cc1", "note": "(configuration not stated)", "TGI": "> 100 µM"}
{"smiles": "O=C(c1ccccc1)c1nnc(C(=O)c2ccccc2)nn1", "TGI": "> 344 µM"}
{"smiles": "Brc1cccc(C=NC23CC4CC(CC(C4)C2)C3)c1", "TGI": "> 100 µM"}
{"smiles": "CCC[CH2][Sn]([CH2]CCC)([O]C(=O)c1cccnc1SC)[O]C(=O)c1cccnc1SC", "GI50": 1.61, "TGI": "3.22 µM"}
{"smiles": "CC1(C)OC2[C@@H](CNC(=O)NC(=O)NC(=O)CI)O[C@@H](n3cnc4c(NC(=O)Nc5ccccc5)ncnc43)[C@H]2O1", "note": "(some centres not stated)", "GI50": 3.96, "TGI": "12.2 µM"}
{"smiles": "COc1cc(C2=C(c3ccccc3)COC2=O)cc(OC)c1OC", "GI50": 3.13, "TGI": "97.5 µM"}
{"smiles": "COc1cc(C2NC(=O)c3ccccc3N2)ccc1OCCCCCOc1c(OC)cc(C2=NOC(c3cc(OC)c(OC)c(OC)c3)C2)cc1OC", "note": "(configuration not stated)", "GI50": "> 100", "TGI": "> 100 µM"}
{"smiles": "O=C1O[C@@H](c2ccc3c(c2)OCO3)C2C(=O)O[C@@H](c3ccc4c(c3)OCO4)C12", "note": "(some centres not stated)", "TGI": "> 100 µM"}
{"smiles": "O=C1CCC(=O)N2CCCCN12", "TGI": "> 100 µM"}
{"smiles": "CC(C)C(=O)NC(=S)Nc1ccc([N+](=O)[O-])cc1C#N", "TGI": "> 100 µM"}
{"smiles": "C/C(CC(=O)Nc1cc(Cl)c(Cl)cc1Cl)=N\\NC(N)=O", "TGI": "> 100 µM"}
{"smiles": "N#Cc1cc([N+](=O)[O-])ccc1NC(=O)C(=O)Nc1n[nH]c(N)n1", "TGI": "> 100 µM"}
{"smiles": "O=C(/C=C/c1c(O)ccc2ccccc12)c1cccc(O)c1", "TGI": "> 100 µM"}
{"smiles": "COC(=O)C1Cc2c(n(Cc3ccccc3)c3ccccc23)C(CCC(=O)O)N1C(C)C", "note": "(configuration not stated)", "TGI": "> 100 µM"}
{"smiles": "O=C(O)CNS(=O)(=O)c1ccc(NCc2ccccc2)cc1", "TGI": "> 100 µM"}
{"smiles": "CC(C)(C)C1C=C(Sc2ccccc2)C(=O)O1", "note": "(configuration not stated)", "TGI": "> 100 µM"}
{"smiles": "CCC[CH2][Sn]1([CH2]CCC)[O]Cc2nc(C)ccc2[O]1", "GI50": 12.8, "TGI": "29.1 µM"}
{"smiles": "Cc1ccc2c(c1)[n+]([O-])c(N)n[n+]2[O-]", "TGI": "> 100 µM"}
{"smiles": "O=c1/c(=C/c2ccco2)sc2nc3ccccc3n12", "GI50": "> 100", "TGI": "> 100 µM"}
{"smiles": "O=C1CCC2(c3ccc(F)cc3)Nc3cc(Cl)ccc3N12", "note": "(configuration not stated)", "TGI": "> 100 µM"}
{"smiles": "C/C(CC(=O)Nc1ccc(C)cc1C)=N/N=C(N)N", "TGI": "> 100 µM"}
{"system": "KM12 colon", "experiment": "inhibition of tumour cell growth, NCI panel, 48 h", "units": {"TGI": "µM", "GI50": "µM"}}
{"smiles": "COC(=O)c1c/c(=N\\NC(=O)CC(=O)Nc2ccccc2OC)c2ccccc2o1", "TGI": "> 100"}
{"smiles": "NC(CCC(=O)NC(CSSCCCCS(=O)O)C(=O)NCC(=O)O)C(=O)O", "note": "(configuration not stated)", "TGI": "> 100"}
{"smiles": "COC12C=C(C)C(CC1)CC2C(=O)O", "note": "(configuration not stated)", "TGI": "> 100"}
{"smiles": "COc1ccc(-c2cnnc3c(-c4cccc(C(F)(F)F)c4)cnn23)cc1", "GI50": "> 100", "TGI": "> 100"}
{"smiles": "OCC(O)CC[CH2][Sn]([Br])([c]1ccccc1)[c]1ccccc1", "note": "(configuration not stated)", "GI50": "> 100", "TGI": "> 100"}
{"smiles": "O=c1c2cc([N+](=O)[O-])ccc2sc2ccsc12", "TGI": "> 100"}
{"smiles": "C=CCCCCCCCCC(=O)[O][Sn]([CH2]CCC)([CH2]CCC)[CH2]CCC", "GI50": 0.145, "TGI": 0.3}
{"smiles": "COc1ccc(C2=CC3CCC2C3)cc1", "note": "(configuration not stated)", "TGI": "> 100"}
{"smiles": "COc1ccc(/C=C/CN(C)CCc2ccccc2)cc1OC", "TGI": "> 100"}
{"smiles": "CC/C(=C(/c1ccc(O)cc1)c1ccc(OCCNC)cc1)c1ccccc1", "GI50": 1.87, "TGI": 3.83}
{"smiles": "[Cl-].[Dy+3].[O-]/N=C(\\c1ccccc1)c1ccccn1.[O-]/N=C(\\c1ccccc1)c1ccccn1.[O-]/N=C(\\c1ccccc1)c1ccccn1", "GI50": 55.3, "TGI": "> 100"}
{"smiles": "CC(C)(CC(=O)Nc1ccccc1)C(=O)O", "TGI": "> 100"}
{"smiles": "COc1ccc(/C(COc2c(-c3ccccc3)oc3ccccc3c2=O)=N\\O)cc1", "GI50": 9.46, "TGI": 23.4}
{"smiles": "NC(=O)C(=O)N/N=C(\\CC1(O)C(=O)Nc2ccccc21)c1ccc2ccccc2c1", "note": "(configuration not stated)", "TGI": 58.7}
{"smiles": "Cc1cc2c(cc1C)[n+](=O)c(C(=O)C/C(=N/NC(=O)CC#N)C(=O)Nc1ccccc1C(F)(F)F)c(C)n2[O-]", "TGI": "> 100"}
{"smiles": "COC(=O)/C(=N/NC(=O)C[N+](C)(C)C)C(C(=O)OC)C(=O)C(=O)Nc1ccc(F)cc1", "note": "(configuration not stated)", "TGI": "> 100"}
{"smiles": "O=C(c1ccccc1)c1nnc(C(=O)c2ccccc2)nn1", "TGI": "> 344"}
{"smiles": "Brc1cccc(C=NC23CC4CC(CC(C4)C2)C3)c1", "TGI": "> 100"}
{"smiles": "CCC[CH2][Sn]([CH2]CCC)([O]C(=O)c1cccnc1SC)[O]C(=O)c1cccnc1SC", "GI50": 1.51, "TGI": 3.08}
{"smiles": "CC1(C)OC2[C@@H](CNC(=O)NC(=O)NC(=O)CI)O[C@@H](n3cnc4c(NC(=O)Nc5ccccc5)ncnc43)[C@H]2O1", "note": "(some centres not stated)", "GI50": 15.8, "TGI": "> 50"}
